Measured values reported in ChEMBL document CHEMBL5316327, “Design and Synthesis of Orally Active Quinolyl Pyrazinamides as Sigma 2 Receptor Ligands for the Treatment of Pancreatic Cancer” (J Med Chem, 2023).
The source made the active and inactive calls. The rule behind the calls is not given here.

Key:
MIA PaCa-2 [1] = experiment: Upregulation of GRP78 in human MIA PaCa-2 cells at 10 uM measured after 24 hrs by Western blot analysis; assay type: functional, cell-based
HCT-116 [2] = experiment: Induction of apoptosis in human HCT-116 cells assessed as early apoptotic cells at 1.0 uM measured after 48 hrs by Annexin V-Alexa Fluor 488/propidium iodide staining based flow cytometry (reference value: 2.77%); assay type: functional
[3] = Toxicity in C57BL/6 mouse assessed as effect on body weight at 60 mg/kg, ip measured upto 28 days; assay type: organism-based; settings: in vivo, 672 h, time < 28 day
D(3) dopamine receptor = D(3) dopamine receptor (Homo sapiens, UniProt P35462); experiment: Binding affinity to dopamine D3 receptor (unknown origin) assessed as inhibition constant
HCT-116 [4] = experiment: Induction of apoptosis in human HCT-116 cells assessed as early apoptotic cells at 5.0 uM measured after 48 hrs by Annexin V-Alexa Fluor 488/propidium iodide staining based flow cytometry (reference value: 2.77%); assay type: functional
[5] = Solubility of the compound; assay type: physicochemical
[6] = biological target: Muscarinic acetylcholine receptor M2 (Homo sapiens, UniProt P08172); experiment: Binding affinity to M2 receptor (unknown origin) assessed as inhibition constant
HCT-116 [7] = experiment: Induction of apoptosis in human HCT-116 cells assessed as necrotic cells at 5.0 uM measured after 48 hrs by Annexin V-Alexa Fluor 488/propidium iodide staining based flow cytometry (reference value: 9.06%); assay type: functional
[8] = Clearance in CD-1 mouse plasma at 10 mg/kg, iv; assay type: ADME, organism-based
HCT-116 [9] = experiment: Induction of cell cycle arrest in human HCT-116 cells assessed as accumulation of cells in G2/M phase at 1 uM measured after 24 hrs by propidium iodide staining-based flow cytometric analysis (reference value: 10%); assay type: functional
MIA PaCa-2 [10] = experiment: Synergistic cytotoxicity in human MIA PaCa-2 cells at upto 1 uM measured after 7 days in presence of doxorubicin by crystal violet staining based analysis; assay type: functional, cell-based; settings: time 7.0 day
HCT-116 [11] = experiment: Induction of apoptosis in human HCT-116 cells assessed as viable cells at 5.0 uM measured after 48 hrs by Annexin V-Alexa Fluor 488/propidium iodide staining based flow cytometry (reference value: 79.69%); assay type: functional; settings: read-out: Activity
[12] = AUC (0 to time of last detectable concentration) in CD-1 mouse plasma at 10 mg/kg, iv; assay type: ADME, organism-based; parameters: dose 10 mg/kg, route iv
[13] = Toxicity in C57BL/6 mouse assessed as effect on body weight at 30 mg/kg, po administered for 32 days and measured on day 4,7 in presence of copper sulfate; assay type: organism-based; settings: in vivo, 768 h, time 32 day
HCT-116 [14] = experiment: Induction of cell cycle arrest in human HCT-116 cells assessed as accumulation of cells in S phase at […] measured after 24 hrs by propidium iodide staining-based flow cytometric analysis (reference value: 47%); assay type: functional; settings: dose 2.5 µM
MIA PaCa-2 [15] = experiment: Induction of apoptosis in human MIA PaCa-2 cells assessed as early apoptotic cells at 10.0 uM measured after 48 hrs by Annexin V-Alexa Fluor 488/propidium iodide staining based flow cytometry (reference value: 4.11%); assay type: functional
MIA PaCa-2 [16] = experiment: Synergistic cytotoxicity in human MIA PaCa-2 cells at upto 1 uM measured after 7 days in presence of oxaliplatin by crystal violet staining based analysis; assay type: functional, cell-based; settings: time 7.0 day
HCT-116 [17] = experiment: Induction of apoptosis in human HCT-116 cells assessed as viable cells at […] measured after 48 hrs by Annexin V-Alexa Fluor 488/propidium iodide staining based flow cytometry (reference value: 79.69%); assay type: functional; settings: dose 2.5 µM, read-out: Activity
MIA PaCa-2 [18] = experiment: Induction of autophagy in human MIA PaCa-2 cells assessed as upregulation of LC-3 level at 1 to 10 uM measured after 24 hrs; assay type: functional, cell-based; settings: dose 1-10 µM
HCT-116 [19] = experiment: Induction of apoptosis in human HCT-116 cells assessed as viable cells at 10.0 uM measured after 48 hrs by Annexin V-Alexa Fluor 488/propidium iodide staining based flow cytometry (reference value: 79.69%); assay type: functional; settings: read-out: Activity

Sequence of D(3) dopamine receptor (P35462 whole entry): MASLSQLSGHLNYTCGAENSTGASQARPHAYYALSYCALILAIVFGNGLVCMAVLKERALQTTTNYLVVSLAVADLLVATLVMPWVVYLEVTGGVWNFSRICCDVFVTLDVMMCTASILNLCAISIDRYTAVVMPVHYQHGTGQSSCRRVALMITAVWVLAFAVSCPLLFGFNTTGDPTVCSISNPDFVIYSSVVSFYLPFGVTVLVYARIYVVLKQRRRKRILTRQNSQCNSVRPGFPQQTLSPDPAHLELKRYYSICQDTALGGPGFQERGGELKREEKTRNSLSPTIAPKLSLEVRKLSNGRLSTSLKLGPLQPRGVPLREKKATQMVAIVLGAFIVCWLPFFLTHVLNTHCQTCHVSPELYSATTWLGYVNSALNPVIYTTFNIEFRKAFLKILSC
Sequence of Muscarinic acetylcholine receptor M2 (P08172 whole entry): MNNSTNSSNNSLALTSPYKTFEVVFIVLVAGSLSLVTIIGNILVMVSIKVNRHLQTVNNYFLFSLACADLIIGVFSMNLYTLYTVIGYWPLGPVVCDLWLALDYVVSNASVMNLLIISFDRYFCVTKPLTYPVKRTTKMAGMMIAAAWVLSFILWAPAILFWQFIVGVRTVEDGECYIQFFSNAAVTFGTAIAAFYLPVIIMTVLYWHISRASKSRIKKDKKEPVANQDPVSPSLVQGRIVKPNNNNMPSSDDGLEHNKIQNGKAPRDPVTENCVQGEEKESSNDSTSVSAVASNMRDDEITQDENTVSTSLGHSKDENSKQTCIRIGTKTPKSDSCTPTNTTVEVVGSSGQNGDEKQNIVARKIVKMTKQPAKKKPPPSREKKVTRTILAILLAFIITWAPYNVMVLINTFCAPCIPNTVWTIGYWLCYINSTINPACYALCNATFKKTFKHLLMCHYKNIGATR

Ki (D(3) dopamine receptor): 638 nM | solubility [5]: > 5000 µg/mL | Ki [6]: 680 nM | clearance [8]: 62.2 mL/min/kg | AUC [12]: 2600 ng·h/mL
SMILES: CCN(CC)CCCC(C)Nc1cnc(C(=O)Nc2ccc(Cl)c3cccnc23)cn1 (stereo not given)
Activity (MIA PaCa-2 [1]): Active | Activity (HCT-116 [2]): 2.38% | Activity [3]: Non-Toxic | Activity (HCT-116 [4]): 12.38% | Activity (HCT-116 [7]): 5.1% | Activity (HCT-116 [9]): 25% | Activity (MIA PaCa-2 [10]): inactive | viability at 5 µM (HCT-116 [11]): 64.1% | Activity [13]: Toxic | Activity (HCT-116 [14]): 33% | Activity (MIA PaCa-2 [15]): 32.58% | Activity (MIA PaCa-2 [16]): inactive | viability at […] (HCT-116 [17]): 68.1% | Activity (MIA PaCa-2 [18]): Active | viability at 10 µM (HCT-116 [19]): 32.9%
